{"source": "paper PMC1865377", "about": "“A novel bifunctional N-acetylglutamate synthase-kinase from Xanthomonas campestris that is closely related to mammalian N-acetylglutamate synthase” (BMC Biochemistry, 2007)", "key": {"[1]": {"molecular_target": "T1, H6XcNAGS-K (Xanthomonas campestris, UniProt A0A0H2X8L7)", "T1 construct": "gene XC_1873; full length, E. coli BL21(DE3), pET15b, N-terminal polyhistidine tag and thrombin site kept", "T1 sequence (A0A0H2X8L7 1-447)": "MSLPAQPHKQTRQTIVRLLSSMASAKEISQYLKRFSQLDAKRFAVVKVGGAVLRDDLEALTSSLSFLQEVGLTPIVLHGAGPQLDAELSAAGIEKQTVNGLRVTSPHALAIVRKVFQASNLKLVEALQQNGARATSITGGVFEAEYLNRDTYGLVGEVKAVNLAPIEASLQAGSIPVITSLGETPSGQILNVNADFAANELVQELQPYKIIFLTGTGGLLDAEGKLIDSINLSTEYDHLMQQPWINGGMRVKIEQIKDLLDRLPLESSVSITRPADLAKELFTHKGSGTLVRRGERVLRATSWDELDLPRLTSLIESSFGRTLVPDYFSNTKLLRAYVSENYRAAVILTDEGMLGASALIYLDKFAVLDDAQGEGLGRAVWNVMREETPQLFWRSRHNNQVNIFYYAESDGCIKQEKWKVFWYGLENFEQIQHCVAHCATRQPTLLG", "assay": "kinase activity, colorimetric hydroxamate assay", "type": "biochemical", "details": "100 mM N-acetylglutamate, 20 mM ATP, 40 mM MgCl2, 400 mM hydroxylamine, pH 6.0, 30 °C"}, "[2]": {"molecular_target": "T1, H6XcNAGS-K", "assay": "synthase activity, LC-MS of N-acetylglutamate", "type": "biochemical", "details": "50 mM L-glutamate, 2 mM AcCoA, pH 9.0, 30 °C"}}}
{"smiles": "N=C(N)NCCC[C@H](N)C(=O)O", "note": "[L-arginine]", "values": [{"measurement": "half-inhibition", "setting": "[1]", "result": "half-inhibition of the kinase activities of XcNAGS-K with and without polyhistidine differed two-fold"}, {"measurement": "half-inhibition", "setting": "[2]", "result": "presence of an affinity tag did not affect the inhibition of the synthase activity of XcNAGS-K"}]}
